{
  "source": "patent US10696947B2",
  "about": "“Culture medium composition for maturating cardiomyocytes derived from pluripotent mammalian stem cells” (Ncardia B.V., priority 2013, dated 2020)",
  "type_in_all_cases": "cell-based",
  "key": {"[1]": {"system": "foetal-like (immature) cardiomyocytes derived from human pluripotent embryonic stem cells (PESCs)", "assay": "Morphological features by alpha-actinin immunofluorescence", "settings": "100 ng/ml T3 in culture medium composition, 5 days, compared to medium lacking T3", "method": "Foetal-like (immature) cardiomyocytes derived from PESC in in vitro culture were divided in two experimental groups. The first group was exposed to a culture medium composition as taught herein but which lacked T3 (control situation). The second group was exposed to a culture medium composition as taught herein but which comprised T3 (100 ng/ml). Both groups were incubated in their respective culture medium composition for 5 days, At the term of the treatment, cardiomyocytes from both experimental groups were fixed in 4% paraformaldehyde, permeabilised with phosphate buffer saline (PBS)/0.1% Triton X-100 (Sigma-Aldrich), and blocked with phosphate buffer saline (PBS)/0.1% Triton X-100 (Sigma-Aldrich) 1% BSA. Samples were incubated 1-hour at room temperature with a primary antibodies specific for the following: alpha-actinin (Eptomics Ab 68167) (at a concentration of 1/400), The primary antibody was detected with either Cy3- or Alexa-Fluor 647-conjugated secondary antibodies (at a concentration of 1/250). Images were captured using either a Leica SP5-STED or a Leica SP5 confocal laser-scanning microscope (Leica Microsystems)."}, "[2]": {"system": "foetal-like (immature) cardiomyocytes derived from human pluripotent embryonic stem cells (PESCs)", "assay": "Electrophysiological properties by perforated patch clamp", "settings": "100 ng/ml T3 in culture medium, 12 days, compared to medium lacking T3", "method": "Foetal-like (immature) cardiomyocytes derived from PESC in in vitro culture were divided in two experimental groups. The first group was exposed to a culture medium composition as taught herein but which lacked T3 (control situation). The second group was exposed to a culture medium composition as taught herein but which comprised T3 (100 ng/ml). Both groups were incubated in their respective culture medium composition for 12 days. At the term of the treatment, foetal-like (immature) cardiomyocytes from both experimental groups were subjected to a patch clamp procedure.\nPatch clamp electrophysiology was performed as described by Bellin, M. et al. EMBO J 32, 3161-3175 (2013)). using minor modifications. Action potentials from small groups of cells (5-10 cells) were measured with the perforated patch clamp technique using an Axopatch 200b amplifier (Molecular Devices) and low resistance patch pipettes (1.5-2.5 MΩ). Data acquisition and analyses of action potentials were performed with pClamp 10 (axon instruments) and custom made software. Action Potentials were corrected for the calculated liquid junction potential (−15 mV).\nAction potentials from spontaneous beating cells were measured at […] using a modified Tyrode's solution containing (in mM): 140 NaCl, 5.4 KCl, 1.8 CaCl2, 1.0 MgCl2, 5.5 glucose, 5.0 HEPES; pH7.2 (NaOH). The pipette solution contained (in mM): 125 K-gluconate, 20 KCl, 5 NaCl, 0.22 amphotericin-B, 10 HEPES; pH 7.2 (KOH). The resting membrane potential (RMP), maximal upstroke velocity (dV/dt max), AP amplitude in mV (APA), and AP duration in milli-seconds (APD) at 20, 50 and 90% repolarization (APD50, and APD90, respectively) were analyzed. Upstroke velocity was calculated from the first derivative of the change in voltage as a function of time. Thus the maximum upstroke velocity (dV/dt max) is equal to the maximum positive value of the first derivative of the action potential. Data from 10 consecutive action potentials were averaged."}, "[3]": {"system": "foetal-like (immature) cardiomyocytes derived from PESC", "assay": "Metabolic profile by TMRM assay (flow cytometry)", "settings": "100 ng/ml T3 in culture medium, 17 days, 5 nM TMRM, compared to medium lacking T3", "method": "Foetal-like (immature) cardiomyocytes derived from PESC in in vitro culture were divided in two experimental groups. The first group was exposed to a culture medium composition as taught herein but which lacked T3 (control situation). The second group was exposed to a culture medium composition as taught herein but which comprised T3 (100 ng/ml). Both groups were incubated in their respective culture medium composition for 17 days. An amount of 5 nM TMRM (Invitrogen) was added in the respective media the day before measurement. Cells were dissociated using 5× Tryple, but with TMRM included in all solutions and also present during measurement, Measurements were performed on a Miltenyi MACSquant VYB flow cytometer."}},
  "note": "“Also recorded” adds a separate entry of the source.",
  "data": [
    {"smiles": "N[C@@H](Cc1cc(I)c(Oc2ccc(O)c(I)c2)c(I)c1)C(=O)O", "note": "[T3, triiodothyronine]", "values": [
      {"measurement": "morphological features (maturation into adult-like cardiomyocytes)", "setting": "[1]", "value": "polarization of cells, improved sarcomeric organization, and elongated shape"},
      {"measurement": "amplitude of the action potential", "setting": "[2]", "value": "greater amplitude of the action potential; also recorded: increased amplitude of the action potential"},
      {"measurement": "maximal upstroke velocity (dV/dt max)", "setting": "[2]", "value": "greater maximal upstroke velocity; also recorded: increased maximum upstroke velocity"},
      {"measurement": "resting membrane potential", "setting": "[2]", "value": "lower resting membrane potential"},
      {"measurement": "mitochondrial activity (TMRM-associated orange fluorescence)", "setting": "[3]", "value": "enhanced mitochondrial activity; also recorded: increased mitochondrial activity"}
    ]}
  ]
}
